Where two headings read alike, the source gives them in different places.
How the values were obtained:
[1] = test system: Freshly isolated mouse hepatocytes; assay: Comparison of 3H-oleate and alkyne-oleate labeling (click/TLC fluorescence vs scintillation counting); assay type: cell-based
Procedure: (§1) Alkyne lipid precursors are supplemented to cell culture where they become incorporated into cellular lipids, e.g. into phosphatidylcholine (PC). These are extracted and reacted with the fluorogenic dye 3-azido-7-hydroxycoumarin in the presence of copper(I). […] (a) Alkyne-Bodipy at concentrations as indicated was reacted with either 60 µM 3-azido-7-hydroxycoumarin and 2mM Cu(I)BF4 (+) or incubated in ethanol for 3h at 42°C (-). The samples were separated by TLC using hexane/ethyl acetate 1/1 as the mobile phase. […] (c) Plot of the integrated fluorescence intensity of lane 6 of panel b (left) and from the corresponding one second exposure before base treatment. […] The cholesterol ester of alkyne-oleate at the indicated concentrations was subjected to detection reaction, TLC separation and fluorescence imaging using the standard protocol. […] (b) Quantification of integrated fluorescence of panel a. […] Signals were quantified either by scraping, extraction and scintillation counting (panel b, ^3H-oleate) or by integration of signals form the fluorescence image (panel b, alkyne-oleate). […] Lipids extracts were dried and subjected to detection reaction, TLC separation and fluorescence imaging using the standard protocol. […] (b) Quantification of the signals in panel a. […]

[2] = test system: Drosophila melanogaster L3 larvae; assay: Alkyne fatty acid labeling of opened single L3 larvae; conditions: 50 µM, 30 min
Procedure: as §1

[3] = test system: HuH7 hepatoma cells; assay: Pulse chase labeling with alkyne fatty acids; assay type: cell-based
Procedure: Alkyne lipid precursors are supplemented to cell culture where they become incorporated into cellular lipids, e.g. into phosphatidylcholine (PC). These are extracted and reacted with the fluorogenic dye 3-azido-7-hydroxycoumarin in the presence of copper(I). […] (a) Alkyne-Bodipy at concentrations as indicated was reacted with either 60 µM 3-azido-7-hydroxycoumarin and 2mM Cu(I)BF4 (+) or incubated in ethanol for 3h at 42°C (-). The samples were separated by TLC using hexane/ethyl acetate 1/1 as the mobile phase. The dried TLC plate was first imaged with excitation at 485 nm and emission at >520 nm (left panel, Bodipy channel), followed by treatment with 4% Hünig's base in hexane and imaging with excitation at 420 nm and emission at 484-504 nm (right panel, Coumarin channel). (b, c) Influence of dye concentration and base treatment. A172 cells were grown in a 15 cm dish and labeled with 100 µM alkyne-palmitate/alkyne-oleate 1/1 for 2 h. Lipids were extracted and dissolved in 2 ml CHCl3. 2 µl of this extract were reacted with 2 mM Cu(I)BF4 and the indicated concentration of 3-azido-7-hydroxycoumarin in 37 µl ethanol/MeCN/CHCl3 24/6/7 at 42°C for 3 h. Samples were separated by TLC and imaged (b) before (right panel) and after (left panel) treatment with 4%-Hünig's base in hexane for the times indicated. (c) Plot of the integrated fluorescence intensity of lane 6 of panel b (left) and from the corresponding one second exposure before base treatment. […] The cholesterol ester of alkyne-oleate at the indicated concentrations was subjected to detection reaction, TLC separation and fluorescence imaging using the standard protocol. […] (b) Quantification of integrated fluorescence of panel a. […] Signals were quantified either by scraping, extraction and scintillation counting (panel b, ^3H-oleate) or by integration of signals form the fluorescence image (panel b, alkyne-oleate). […] Lipids extracts were dried and subjected to detection reaction, TLC separation and fluorescence imaging using the standard protocol. […] (b) Quantification of the signals in panel a. […]

[4] = test system: Freshly isolated mouse hepatocytes; assay: Hepatocyte fatty acid metabolism, time course with alkyne or natural fatty acids; assay type: cell-based; conditions: 50 µM fatty acid, all labeling times; fluorescent click analysis
Procedure: as §1

[5] = test system: A-172 cells; assay: Alkyne-sphinganine labeling of cultivated cells, click analysis; assay type: cell-based; conditions: cultivated 1 h with the compound
Procedure: as §1

SMILES	amount of label in neutral lipids [1]	incorporation into PE [2]	fate of label after chase [3]	incorporation into TAG compared to PC [4]	fate of label after chase ([3]; 3 min pulse, 30 min chase)	distribution of label after pulse ([3]; 3 min pulse, no chase)	labeling of cellular lipids [5]
C#CCCCCCCC/C=C\CCCCCCCC(=O)O [alkyne-oleate, Nonadec-9-cis-en-18-ynoic acid]	49%	large amounts	metabolized to the final products PC, PE, TAG and CE				
C#CCCCCCCCCCCCCCCC(=O)O [alkyne-palmitate, 16-Heptadecynoic acid]		much less		equal distribution between PC and TAG	metabolized to the final products PC, PE, TAG and CE	much of the fatty acids were found as the free substance, or in biosynthetic intermediates such as PA and DAG	
C#CCCCCCCCCCCCCC[C@@H](O)[C@@H](N)CO [alkyne-sphinganine, (2S,3R)-2-Aminooctadec-17-yn-1,3-diol]							strong labeling of ceramide and other sphingolipids

Reference: patent publication EP2680005A1, “Lipid analysis” (Rheinische Friedrich-Wilhelms-Universität Bonn, priority 2012, dated 2014)
